# From patent US7527812B2, “Herbal composition for treating cancer” (Sheng Foong Pharmaceutical Co., Ltd., priority 2005, dated 2009)
# Columns and labels:
# Assay type in all cases: cell-based
# [1] = system: A-498 kidney carcinoma cells; experiment: in vitro cytotoxicity assay (MTS), A498; details: Homo sapiens, A498, 72 hours exposure, read-out: IC50 (concentration that inhibits 50% of cell growth)
# Description: (§1) To examine the effects of the present composition SF-01 on inhibition of cancer/tumor cells, various human cell lines were used, including one normal cell line and eight cancer/tumor cell lines: • 1. RPTEC (Cambrex): Normal renal proxima tubule epithelial cell, Human • 2. A-498 (ATCC HTB-44): Kidney carcinoma, Human • 3. HCT 116 (ATCC CCL-247): Colorectal carcinoma, Human • 4. Hep 3B (ATCC HB-8064): Hepatocellular carcinoma, Human • 5. LNCap clone FGC (ATCC CRL-1740): Prostate carcinoma, Human • 6. MCF-7 (ATCC HTB-22): Mammary gland adenocarcinoma, Human • 7. MKN45 (FDSC JCRB0245): Stomach carcinoma, Human • 8. NCI-H226 (ATCC CRL-5826): Lung carcinoma, Human • 9. NPC-TW01 (School of Medicine, NTU): Nasal-pharyngeal carcinoma, Human […]
# (§2) To evaluate the antitumoral activity of SF-01 towards various human cancer cell lines and measure the potential cytotoxicity of SF-01 towards the primary human renal cell lines (RPTEC), an in vitro cytotoxicity assay was carried out. […] To quantify the metabolically viable cells, the conversion of MTS to formazan was measured by absorbance at 490 nm in a 96-well microtiter plate reader. […] The percentage of cytostasis was calculated by the formula: Cytostasis (%)=[1−(B/A)]×100, where A is the absorbance of the untreated control and B is the absorbance of the treated cell. […]
# [2] = system: HCT 116 colorectal carcinoma cells; experiment: in vitro cytotoxicity assay (MTS), HCT 116; details: Homo sapiens, HCT 116, 72 hours exposure, read-out: IC50 (concentration that inhibits 50% of cell growth)
# Description: as §1, §2
# [3] = system: Hep 3B hepatocellular carcinoma cells; experiment: in vitro cytotoxicity assay (MTS), Hep 3B; details: Homo sapiens, Hep3B, 72 hours exposure, read-out: IC50 (concentration that inhibits 50% of cell growth)
# Description: as §1, §2
# [4] = system: LNCaP clone FGC prostate carcinoma cells; experiment: in vitro cytotoxicity assay (MTS), LNCaP clone FGC; details: Homo sapiens, 72 hours exposure, read-out: IC50 (concentration that inhibits 50% of cell growth)
# Description: as §1, §2
# [5] = system: MCF-7 mammary gland adenocarcinoma cells; experiment: in vitro cytotoxicity assay (MTS), MCF-7; details: Homo sapiens, MCF7, MCF-7, 72 hours exposure, read-out: IC50 (concentration that inhibits 50% of cell growth)
# Description: as §1, §2
# [6] = system: MKN45 stomach carcinoma cells; experiment: in vitro cytotoxicity assay (MTS), MKN45; details: Homo sapiens, MKN-45, MKN45, 72 hours exposure, read-out: IC50 (concentration that inhibits 50% of cell growth)
# Description: as §1, §2
# [7] = system: NCI-H226 lung carcinoma cells; experiment: in vitro cytotoxicity assay (MTS), NCI-H226; details: Homo sapiens, NCI-H226, 72 hours exposure, read-out: IC50 (concentration that inhibits 50% of cell growth)
# Description: as §1, §2
# [8] = system: NPC-TW01 nasal-pharyngeal carcinoma cells; experiment: in vitro cytotoxicity assay (MTS), NPC-TW01; details: Homo sapiens, NPC-TW01, 72 hours exposure, read-out: IC50 (concentration that inhibits 50% of cell growth)
# Description: as §1, §2
# [9] = system: RPTEC normal renal proximal tubule epithelial cells; experiment: in vitro cytotoxicity assay (MTS), normal cell RPTEC; details: Homo sapiens, 72 hours exposure, read-out: IC50 (concentration that inhibits 50% of cell growth)
# Description: as §1, §2
# [10] = system: various human tumor cell lines; experiment: in vitro cytotoxicity assay (MTS), span over the tumor cell lines; details: span over the eight tumor cell lines, 72 hours exposure
# Description: as §1, §2
SMILES,IC50 [1] [nM],IC50 [2] [nM],IC50 [3] [nM],IC50 [4] [nM],IC50 [5] [nM],IC50 [6] [nM],IC50 [7] [nM],IC50 [8] [nM],IC50 [9] [nM],IC50 to various human tumor cell lines (span over the lines) [10] [nM]
CC(=O)O[C@H]1C(=O)[C@@]2(C)[C@H]([C@H](OC(=O)c3ccccc3)[C@]3(O)C[C@H](OC(=O)[C@H](O)[C@@H](NC(=O)c4ccccc4)c4ccccc4)C(C)=C1C3(C)C)[C@]1(OC(C)=O)CO[C@@H]1C[C@@H]2O [Taxol],11.1,< 0.0256,0.0256,< 0.0256,< 0.0256,0.0256,< 0.64,< 0.0256,406,11 to 0.003
COc1cccc2c1C(=O)c1c(O)c3c(c(O)c1C2=O)C[C@@](O)(C(=O)CO)C[C@@H]3O[C@H]1C[C@H](N)[C@H](O)[C@H](C)O1 [Doxorubicin],782,33,116,14,70,58,123,11,3180,800 to 11
